The Kinase Knowledgebase extract (Sharma et al. 2016)

Columns and labels:
PIK3CA (human) = PIK3CA (human) (UniProt P42336); experiment: Inhibition of PIK3CA Kinase Activity
PIK3CB (Human) = PIK3CB (Human) (UniProt P42338); experiment: Inhibition of PIK3CB Kinase Activity
PIK3CD (Human) = PIK3CD (Human) (UniProt O00329); experiment: Inhibition of PIK3CD Kinase Activity
Chain of PIK3CD (Human) (O00329 whole entry, looked up): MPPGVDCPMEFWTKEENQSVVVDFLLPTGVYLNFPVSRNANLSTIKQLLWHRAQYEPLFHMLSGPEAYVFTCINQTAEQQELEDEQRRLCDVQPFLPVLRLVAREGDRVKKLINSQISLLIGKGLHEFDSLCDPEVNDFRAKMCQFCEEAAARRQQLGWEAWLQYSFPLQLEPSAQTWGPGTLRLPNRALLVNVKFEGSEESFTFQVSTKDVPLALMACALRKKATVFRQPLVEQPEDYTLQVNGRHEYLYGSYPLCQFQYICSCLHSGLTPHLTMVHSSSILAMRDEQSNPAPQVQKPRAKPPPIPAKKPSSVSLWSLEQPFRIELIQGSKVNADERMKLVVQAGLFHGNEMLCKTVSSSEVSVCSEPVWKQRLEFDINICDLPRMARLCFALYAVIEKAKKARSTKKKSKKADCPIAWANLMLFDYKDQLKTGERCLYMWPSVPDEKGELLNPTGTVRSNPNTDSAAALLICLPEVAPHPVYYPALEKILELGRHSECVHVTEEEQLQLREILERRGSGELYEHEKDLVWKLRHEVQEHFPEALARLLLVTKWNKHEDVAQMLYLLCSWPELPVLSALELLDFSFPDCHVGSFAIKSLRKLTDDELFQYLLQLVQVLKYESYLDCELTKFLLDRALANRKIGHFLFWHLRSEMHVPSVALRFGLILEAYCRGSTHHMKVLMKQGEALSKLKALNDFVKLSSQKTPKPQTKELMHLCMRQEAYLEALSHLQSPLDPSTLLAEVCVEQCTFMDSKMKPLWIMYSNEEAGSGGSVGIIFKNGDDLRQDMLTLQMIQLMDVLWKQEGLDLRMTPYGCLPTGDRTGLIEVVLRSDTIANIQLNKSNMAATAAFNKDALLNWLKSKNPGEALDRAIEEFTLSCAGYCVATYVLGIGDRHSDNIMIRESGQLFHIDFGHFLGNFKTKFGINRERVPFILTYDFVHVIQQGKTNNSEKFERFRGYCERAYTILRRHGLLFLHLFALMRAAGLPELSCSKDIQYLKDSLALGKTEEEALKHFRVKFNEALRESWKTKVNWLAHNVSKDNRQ

Chain of PIK3CB (Human) (P42338 whole entry, looked up): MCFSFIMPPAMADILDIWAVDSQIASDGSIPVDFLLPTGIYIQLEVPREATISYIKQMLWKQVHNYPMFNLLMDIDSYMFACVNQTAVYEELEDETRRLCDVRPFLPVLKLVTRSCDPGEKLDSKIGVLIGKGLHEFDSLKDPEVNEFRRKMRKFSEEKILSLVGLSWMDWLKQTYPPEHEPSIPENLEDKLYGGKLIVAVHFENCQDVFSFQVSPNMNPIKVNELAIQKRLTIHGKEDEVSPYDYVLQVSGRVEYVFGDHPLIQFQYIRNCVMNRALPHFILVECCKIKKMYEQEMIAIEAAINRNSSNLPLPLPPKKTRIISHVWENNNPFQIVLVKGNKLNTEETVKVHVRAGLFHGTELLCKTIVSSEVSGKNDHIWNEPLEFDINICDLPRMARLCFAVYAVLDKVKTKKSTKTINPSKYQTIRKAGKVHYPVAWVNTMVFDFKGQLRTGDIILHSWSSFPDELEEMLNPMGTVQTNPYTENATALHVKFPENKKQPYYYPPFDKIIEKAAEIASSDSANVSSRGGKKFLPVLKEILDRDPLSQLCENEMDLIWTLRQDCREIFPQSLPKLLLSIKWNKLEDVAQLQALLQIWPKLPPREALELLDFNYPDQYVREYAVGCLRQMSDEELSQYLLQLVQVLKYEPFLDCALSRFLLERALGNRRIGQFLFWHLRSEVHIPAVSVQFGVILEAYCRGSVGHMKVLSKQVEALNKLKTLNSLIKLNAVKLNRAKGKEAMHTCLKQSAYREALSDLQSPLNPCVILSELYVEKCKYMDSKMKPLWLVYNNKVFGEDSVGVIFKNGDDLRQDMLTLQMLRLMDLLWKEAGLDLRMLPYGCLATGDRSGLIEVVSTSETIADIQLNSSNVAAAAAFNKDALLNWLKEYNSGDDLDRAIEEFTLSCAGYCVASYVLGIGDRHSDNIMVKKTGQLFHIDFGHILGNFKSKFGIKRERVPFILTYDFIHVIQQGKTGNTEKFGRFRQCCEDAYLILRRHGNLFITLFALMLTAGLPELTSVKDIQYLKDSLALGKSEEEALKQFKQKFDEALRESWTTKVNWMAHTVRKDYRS
Chain of PIK3CA (human) (P42336 whole entry, looked up): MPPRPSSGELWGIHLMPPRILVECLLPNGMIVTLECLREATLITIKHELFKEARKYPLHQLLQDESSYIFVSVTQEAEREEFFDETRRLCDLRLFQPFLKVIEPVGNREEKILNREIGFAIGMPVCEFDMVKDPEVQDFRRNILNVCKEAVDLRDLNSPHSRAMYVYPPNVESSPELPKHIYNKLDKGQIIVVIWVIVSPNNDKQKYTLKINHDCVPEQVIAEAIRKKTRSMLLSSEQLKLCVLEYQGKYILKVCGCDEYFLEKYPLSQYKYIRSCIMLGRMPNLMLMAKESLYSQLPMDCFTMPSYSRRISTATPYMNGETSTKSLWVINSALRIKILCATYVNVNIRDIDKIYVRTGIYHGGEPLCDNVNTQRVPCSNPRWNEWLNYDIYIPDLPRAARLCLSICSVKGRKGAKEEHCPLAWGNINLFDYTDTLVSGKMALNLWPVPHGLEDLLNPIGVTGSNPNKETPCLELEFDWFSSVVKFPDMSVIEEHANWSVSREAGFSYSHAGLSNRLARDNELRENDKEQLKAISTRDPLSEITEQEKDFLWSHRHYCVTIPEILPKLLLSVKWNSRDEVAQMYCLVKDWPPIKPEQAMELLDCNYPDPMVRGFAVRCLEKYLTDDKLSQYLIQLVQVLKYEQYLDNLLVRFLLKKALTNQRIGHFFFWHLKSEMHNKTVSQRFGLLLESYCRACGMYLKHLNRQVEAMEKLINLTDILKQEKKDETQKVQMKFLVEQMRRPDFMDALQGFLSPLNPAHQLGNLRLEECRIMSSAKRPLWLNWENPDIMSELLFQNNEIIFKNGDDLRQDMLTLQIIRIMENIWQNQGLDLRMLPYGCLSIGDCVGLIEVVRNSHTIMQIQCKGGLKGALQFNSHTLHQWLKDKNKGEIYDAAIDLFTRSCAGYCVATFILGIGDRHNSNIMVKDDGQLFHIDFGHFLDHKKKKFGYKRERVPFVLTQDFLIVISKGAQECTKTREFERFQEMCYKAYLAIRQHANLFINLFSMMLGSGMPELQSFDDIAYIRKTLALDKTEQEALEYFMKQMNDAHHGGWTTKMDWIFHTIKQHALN

Row | Structure (SMILES) | IC50 (PIK3CA (human)) | IC50 (PIK3CB (Human)) | IC50 (PIK3CD (Human))
1 | CCCCCC.Cc1ccc([N+](=O)[O-])cc1S(=O)(=O)N(C)N=Cc1cnn2ccc(I)cc12 | 23 nM | 720 nM | 240 nM
2 | CN(N=Cc1cnn2ccc(C#N)cc12)S(=O)(=O)c1cc([N+](=O)[O-])ccc1CCc1ccccn1 | 5.8 nM | 5600 nM | 200 nM
3 | Cc1ccc([N+](=O)[O-])cc1S(=O)(=O)c1nnc(-c2cnn3ccc(Br)cc23)o1 | 84 nM | – | 120 nM
4 | Cc1ccc([N+](=O)[O-])cc1S(=O)(=O)N(C)N=Cc1cnn2ccccc12 | – | > 10000 nM | –
5 | CN(N=Cc1cnn2ccc(C#N)cc12)S(=O)(=O)c1cc([N+](=O)[O-])ccc1Cl | – | 94 nM | –
